# Test results: PMC3954431 (Molecular cancer therapeutics, 2013)
# Assays:
# [1] = test system: W6/32 mAb (anti-human HLA class I antigen) binding; experiment: Competition of W6/32 mAb binding; assay type: cell-based; conditions: Fig. S2B
# [2] = test system: UN1 mAb binding to UN1-positive breast and gastric cancer tissues; experiment: Competition of UN1 mAb binding to cancer tissues; parameters: species or system human; conditions: Fig. S3
# UN1 mAb = experiment: Surface plasmon resonance, UN1 mAb immobilized on CM5 chip; assay type: binding, murine; conditions: Biacore 3000, UN1 mAb immobilized on CM5 chip, peptide 0.1-2.5 mM
# [3] = ELISA reactivity of immunized mice sera against G23 peptide; assay type: in vivo; conditions: sera of phage-immunized Balb/c mice
# [4] = ELISA reactivity of immunized mice sera against scrambled peptide; assay type: in vivo; conditions: sera of phage-immunized Balb/c mice
# wild type phage = experiment: ELISA reactivity of immunized mice sera against wild type phage; assay type: in vivo; conditions: sera of phage-immunized Balb/c mice
# [5] = Balb/c mice
# [6] = sera, days 7-10 from the 6th boost, 5 animals/group, colorimetric assay, mean ± SEM
Sequence,competition of W6/32 mAb binding [1],competition of UN1 mAb binding to breast and gastric cancer tissues [2],SPR signal (UN1 mAb),serum reactivity against G23 peptide [3],serum reactivity against scrambled peptide [4],antibody response against the wild type phage (wild type phage),"health of immunized mice ([5]; 5 animals/group, i.p. phage immunization)","serum IL1-β, GSH and LDH levels versus normal ([5]; phage-immunized)","GSH [5, 6] [µM]","LDH [5, 6] [IU/L]","IL-1β ([5]; serum, days 7-10 from the 6th boost, 5 animals/group, ELISA, mean ± SEM) [pg/mL]"
SFAATPHTCKLLDECVPLWPAEG [G23],did not compete the binding of W6/32 mAb,competed the binding of UN1 mAb to UN1-positive breast and gastric cancer tissues,,,,,,,,,
TCLAPDVPEPLSHCWAGETFKLA [scrambled peptide],,,failed to give the SPR signal,,,,,,,,
TPHTCKLLDECVPLW [phagotope 2/165],,competed the binding of UN1 mAb to UN1-positive breast and gastric cancer tissues,,specific immune response against the UN1 mimotope G23 peptide,unreactive against the scrambled peptide,strong and comparable antibody response against the wild type phage,appeared healthy and did not show any ill-effect,in the range of normality,10.1 ± 0.9,52.9 ± 15.4,58.2 ± 0.3
